Experiments:
[1] = molecular target: T1, glucose dehydrogenase (GlucDH) (Bacillus subtilis, UniProt P12310); assay: Glucose dehydrogenase (GlucDH) activity assay with NAD derivative as cofactor; type: biochemical; details: for U/ml: GlucDH 0.002 mg/ml (NAD)
Method: In order to examine the role of pNAD as a cofactor for glucose dehydrogenase (GlucDH), a glucoseDH activity assay in 0.1 M Tris/0.2 M NaCl (pH 8.5) buffer was carried out. The concentration of glucose was 80 mM. pNAD and NAD concentrations of 0.05-0.5 mM were used. To this, 10 mg/ml (pNAD) or 0.002 mg/ml (NAD) [83 or 0.017 μM respectively] GlucDH was added. The assay was carried out at room temperature and the enzymatic reaction was monitored by recording absorption spectra at regular time intervals. The values shown in table 1 refer to an absorption measurement after 4 min.
A glucose dehydrogenase activity assay for cNAD compared to NAD was carried out as described under B) for pNAD. For this purpose glucose dehydrogenase concentrations of […] and 0.002 mg/ml (NAD) [0.83 and 0.017 μM respectively] were used.

[2] = Examination of the stability of carbaNAD (stressing in solution, HPLC); type: physicochemical; details: 10 mM solution, pH 8, 0.1 M potassium phosphate buffer, 8° C. and 37° C., after 0.25, 75 and 175 h
Method: A 10 mM solution of carbNAD and/or NAD is stressed at pH 8 in 0.1 M potassium phosphate buffer. The content is determined by means of HPLC chromatography after 0.25, 75 and 175 h.
Buffer A: 100 mM KHPO4+10 mM tetrabutylammonium hydrogen sulfate, pH 6.9 buffer B: buffer A+acetonitrile 1:1 flow rate 1.0 ml/min detection: 254 nm […]
gradient: in 40 min to 35% buffer B, hold for 2 min and then change to 0% buffer A within 3 min.

[3] = Investigation of the stability of pNAD (incubation at 50° C., HPLC); type: physicochemical; details: 0.15 M KPO4, 1 M NaCl buffer (pH 7.0)
Method: In order to examine the stability of pNAD compared to NAD, the same amounts of NAD and pNAD were each taken up in 0.15 M KPO4, 1 M NaCl buffer (pH 7.0) and incubated at 50° C. The decomposition of NAD and/or pNAD were monitored by HPLC.

[4] = molecular target: T1, glucose dehydrogenase (GlucDH); assay: Glucose dehydrogenase (GlucDH) activity assay with NAD derivative as cofactor; type: biochemical; details: 0.05 mM (p)NAD; 80 mM glucose; 0.1 M Tris/0.2 M NaCl pH 8.5; room temperature; absorption after 4 min; GlucDH 0.02 mg/ml (NAD), 10 mg/ml (pNAD)
[5] = 0.05 mM (c)NAD, relative to NAD = 100
[6] = 0.05 mM (p)NAD, relative to NAD = 100, 80 mM glucose, pH 8.5, after 4 min
[7] = 0.1 mM (c)NAD, relative to NAD = 100
[8] = 0.4 mM (p)NAD, relative to NAD = 100, 80 mM glucose, pH 8.5, after 4 min

T1 sequence (P12310 whole entry): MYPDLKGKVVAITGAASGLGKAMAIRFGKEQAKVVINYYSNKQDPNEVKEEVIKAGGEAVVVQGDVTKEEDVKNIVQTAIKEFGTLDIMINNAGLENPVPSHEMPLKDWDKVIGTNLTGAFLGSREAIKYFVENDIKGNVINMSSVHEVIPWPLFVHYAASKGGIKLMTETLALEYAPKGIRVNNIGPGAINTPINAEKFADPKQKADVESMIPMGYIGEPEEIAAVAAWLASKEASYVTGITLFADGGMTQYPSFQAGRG

SMILES	activity at 50 µM [1, 5] [%]	activity at 50 µM [1, 6] [%]	activity at 100 µM [1, 7] [%]	activity at 400 µM [1, 8] [%]	U/ml ([1]; 0.05 mM (c)NAD, assay as for pNAD, 0.1 mg/ml (cNAD)) [U/ml]	% activity [1, 5] [%]	U/ml ([1]; 0.1 mM (c)NAD, assay as for pNAD, 0.1 mg/ml (cNAD)) [U/ml]	% activity [1, 7] [%]	stability (occurrence of decomposition products, HPLC area percentages) [2]	U/ml ([1]; 0.4 mM (p)NAD, 80 mM glucose, 0.1 M Tris/0.2 M NaCl pH 8.5, room temperature, absorption after 4 min, 10 mg/ml (pNAD)) [U/ml]	stability (percentage areas of (p)NAD compared to time zero, HPLC) [3]	U/ml [4] [U/ml]
NC(=O)c1ccc[n+]([C@@H]2O[C@H](COP(=O)([O-])OP(=O)(O)OC[C@H]3O[C@@H](n4cnc5c(N)ncnc54)[C@H](O)[C@@H]3O)[C@@H](O)[C@H]2O)c1 [NAD, nicotinamide adenine dinucleotide, reference compound]	100	100	100	100								
NC(=O)c1ccc[n+]([C@@H]2C[C@H](COP(=O)([O-])OP(=O)(O)OC[C@H]3O[C@@H](n4cnc5c(N)ncnc54)[C@H](O)[C@@H]3O)[C@@H](O)[C@H]2O)c1 [cNAD, carbaNAD]					2.7	0.63	5.3	0.95	very stable compared to NAD			
NC(=O)c1ccc[n+]([C@@H]2CN[C@H](COP(=O)([O-])OP(=O)(O)OC[C@H]3O[C@@H](n4cnc5c(N)ncnc54)[C@H](O)[C@@H]3O)C2)c1 [pNAD, Pyrrolidinyl-NAD]		3e-05		0.00015						0.0024	very stable compared to NAD	0.00017
